# Source: patent publication US20150197492A1, “NOVEL INDENO[1,2-c]QUINOLIN-11-ONE DERIVATIVES, PREPARATION METHOD AND APPLICATION THEREOF” (National Defense Medical Center, priority 2014, published 2015)
# Tests used:
# Type in all cases: cell-based
# HCT-15 = experiment: cells; settings: HCT-15 (Colon Cancer), 10 μM, 48 hours
# NCI-H460 = experiment: cells; settings: NCI-H460 (Non-Small Cell Lung Cancer), 10 μM, 48 hours
# human PC-3 cells = experiment: Sulforhodamine B (SRB) assay, cytotoxicity against PC-3 cells; settings: SRB assay, PC-3 cells; for IC50: Homo sapiens, 48 hours, read-out: IC50
# Outline: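 PC-3 cells in 5% FBS were fixed with 10% TCA after 24 h as T0, then treated with compound for 48 h, fixed, stained with 0.4% SRB in 1% acetic acid and solubilized in 10 mmol/L Trizma base. Absorbance was read at 515 nm. GI% = 100−[(Tx−T0)/(C−T0)]×100, and IC50 is the concentration halving total protein.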
# MCF7 = experiment: cells; settings: MCF7 (Breast Cancer), 10 μM, 48 hours
# MALME-3M = experiment: cells; settings: MALME-3M (Melanoma), 10 μM, 48 hours
# UO-31 = experiment: cells; settings: UO-31 (Renal Cancer), 10 μM, 48 hours
# HCT-116 = experiment: cells; settings: HCT-116 (Colon Cancer), 10 μM, 48 hours
# T-47D = experiment: cells; settings: T-47D (Breast Cancer), 10 μM, 48 hours
# OVCAR-4 = experiment: cells; settings: OVCAR-4 (Ovarian Cancer), 10 μM, 48 hours
# SK-MEL-2 = experiment: cells; settings: SK-MEL-2 (Melanoma), 10 μM, 48 hours
# SNB-75 = experiment: cells; settings: SNB-75 (CNS Cancer), 10 μM, 48 hours
# SK-OV-3 = experiment: cells; settings: SK-OV-3 (Ovarian Cancer), 10 μM, 48 hours
# MDA-MB-231/ATCC = experiment: cells; settings: MDA-MB-231/ATCC (Breast Cancer), 10 μM, 48 hours
# HS 578T = experiment: cells; settings: HS 578T (Breast Cancer), 10 μM, 48 hours
# OVCAR-5 = experiment: cells; settings: OVCAR-5 (Ovarian Cancer), 10 μM, 48 hours
# NCI/ADR-RES = experiment: cells; settings: NCI/ADR-RES (Ovarian Cancer), 10 μM, 48 hours
# OVCAR-3 = experiment: cells; settings: OVCAR-3 (Ovarian Cancer), 10 μM, 48 hours
# SK-MEL-28 = experiment: cells; settings: SK-MEL-28 (Melanoma), 10 μM, 48 hours
# RXF 393 = experiment: cells; settings: RXF 393 (Renal Cancer), 10 μM, 48 hours
# HT29 = experiment: cells; settings: HT29 (Colon Cancer), 10 μM, 48 hours
# SN12C = experiment: cells; settings: SN12C (Renal Cancer), 10 μM, 48 hours
# OVCAR-8 = experiment: cells; settings: OVCAR-8 (Ovarian Cancer), 10 μM, 48 hours
# MOLT-4 = experiment: cells; settings: MOLT-4 (Leukemia), 10 μM, 48 hours
# MDA-MB-468 = experiment: cells; settings: MDA-MB-468 (Breast Cancer), 10 μM, 48 hours
# KM12 = experiment: cells; settings: KM12 (Colon Cancer), 10 μM, 48 hours
# HOP-92 = experiment: cells; settings: HOP-92 (Non-Small Cell Lung Cancer), 10 μM, 48 hours
# HOP-62 = experiment: cells; settings: HOP-62 (Non-Small Cell Lung Cancer), 10 μM, 48 hours
# EKVX = experiment: NCI cancer cell cytotoxicity assay, Non-Small Cell Lung Cancer EKVX; settings: 10 μM, 48 hours
SMILES,growth percentage (HCT-15),growth percentage (NCI-H460),growth percentage (MCF7),growth percentage (MALME-3M),growth percentage (UO-31),growth percentage (HCT-116),growth percentage (T-47D),growth percentage (OVCAR-4),growth percentage (SK-MEL-2),growth percentage (SNB-75),growth percentage (MDA-MB-231/ATCC),growth percentage (HS 578T),growth percentage (OVCAR-5),growth percentage (NCI/ADR-RES),growth percentage (OVCAR-3),growth percentage (SK-MEL-28),growth percentage (RXF 393),growth percentage (HT29),growth percentage (SN12C),growth percentage (OVCAR-8),also measured
"O=C1c2cc(Cl)ccc2-c2c(N3CCOCC3)nc3ccccc3c21 [SJ-8, 9-Chloro-6-morpholino-11H-indeno[1,2-c]quinolin-11-one]",80.29%,102.14%,52.31%,136.93%,45.74%,93.64%,88.81%,96.67%,104.29%,81.55%,79.28%,88.93%,90.30%,94.32%,102.34%,113.81%,114.61%,91.34%,96.95%,95.25%,IC50 (human PC-3 cells): > 10 µM; growth percentage (SK-OV-3): 107.26%; growth percentage (MOLT-4): 88.74%; growth percentage (MDA-MB-468): 59.47%; growth percentage (KM12): 109.99%; growth percentage (HOP-92): 66.08%; growth percentage (HOP-62): 78.71%
"CN1CCN(c2nc3ccccc3c3c2-c2ccc(Cl)cc2C3=O)CC1 [SJ-12, 9-Chloro-6-(4-methylpiperazin-1-yl)-11H-indeno[1,2-c]quinolin-11-one]",92.83%,91.83%,68.30%,106.59%,47.60%,92.78%,76.27%,94.70%,104.36%,70.00%,62.53%,70.47%,99.31%,88.19%,93.41%,110.81%,94.00%,93.76%,83.57%,87.51%,Toxicity (%) (human PC-3 cells): 0%; GI % (10 μM) (human PC-3 cells; 10 μM): 39.4%; growth percentage (SK-OV-3): 87.98%; growth percentage (MOLT-4): 92.90%; growth percentage (MDA-MB-468): 95.71%; growth percentage (KM12): 99.06%; growth percentage (HOP-92): 38.50%; growth percentage (HOP-62): 61.42%
"O=C1c2cc(Cl)ccc2-c2c(SCCO)nc3ccccc3c21 [SJ-25, 6-(2-Hydroxyethylthio)-9-chloro-11H-indeno[1,2-c]quinolin-11-one]",80.10%,79.22%,67.82%,107.23%,56.23%,77.94%,63.89%,73.19%,95.85%,66.06%,72.56%,58.28%,112.54%,73.58%,89.42%,86.90%,79.39%,84.03%,84.58%,90.21%,IC50 (human PC-3 cells): > 10 µM; growth percentage (EKVX): 30.15%; growth percentage (MOLT-4): 59.49%; growth percentage (MDA-MB-468): 77.36%; growth percentage (KM12): 84.62%; growth percentage (HOP-62): 91.46%
"O=C1c2cc(Cl)ccc2-c2c(O)nc3ccccc3c21 [SJ-26, 6-Hydroxy-9-chloro-11H-indeno[1,2-c]quinolin-11-one]",108.54%,83.32%,68.09%,103.37%,70.50%,103.43%,67.23%,80.74%,117.12%,80.33%,86.98%,105.98%,126.77%,97.00%,117.80%,100.02%,99.93%,102.38%,96.69%,107.63%,growth percentage (EKVX): 72.14%; growth percentage (MOLT-4): 95.10%; growth percentage (MDA-MB-468): 80.08%; growth percentage (KM12): 102.73%; growth percentage (HOP-62): 91.26%
"O=C1c2cc(Cl)ccc2-c2c(Cl)nc3ccccc3c21 [TC-XCl-1, 6,9-Dichloro-11H-indeno[1,2-c]quinolin-11-one]",114.88%,98.68%,74.25%,102.06%,80.62%,105.87%,86.97%,94.13%,117.11%,82.91%,87.66%,91.01%,137.00%,96.78%,119.93%,90.08%,112.80%,104.27%,88.03%,101.08%,IC50 (human PC-3 cells): > 15 µM; growth percentage (EKVX): 79.27%; growth percentage (MOLT-4): 70.83%; growth percentage (MDA-MB-468): 107.92%; growth percentage (KM12): 111.92%; growth percentage (HOP-92): 71.94%; growth percentage (HOP-62): 94.89%
